{"source": "patent US20230026271A1", "about": "“Piperazine Compounds for Inhibiting CPS1” (Eisai R&D Management Co., Ltd., priority 2019, published 2023)", "data": [{"target": "T1, CPS1 (Homo sapiens, UniProt P31327)", "T1 construct": "The full length, human CPS1 gene was cloned into pFastBac HTA; His6 (from the pFastBac HTA vector); made in house; host or cells: SF21 insect cells (baculovirus, Bac-to-bac)", "T1 sequence (P31327 39-1500)": "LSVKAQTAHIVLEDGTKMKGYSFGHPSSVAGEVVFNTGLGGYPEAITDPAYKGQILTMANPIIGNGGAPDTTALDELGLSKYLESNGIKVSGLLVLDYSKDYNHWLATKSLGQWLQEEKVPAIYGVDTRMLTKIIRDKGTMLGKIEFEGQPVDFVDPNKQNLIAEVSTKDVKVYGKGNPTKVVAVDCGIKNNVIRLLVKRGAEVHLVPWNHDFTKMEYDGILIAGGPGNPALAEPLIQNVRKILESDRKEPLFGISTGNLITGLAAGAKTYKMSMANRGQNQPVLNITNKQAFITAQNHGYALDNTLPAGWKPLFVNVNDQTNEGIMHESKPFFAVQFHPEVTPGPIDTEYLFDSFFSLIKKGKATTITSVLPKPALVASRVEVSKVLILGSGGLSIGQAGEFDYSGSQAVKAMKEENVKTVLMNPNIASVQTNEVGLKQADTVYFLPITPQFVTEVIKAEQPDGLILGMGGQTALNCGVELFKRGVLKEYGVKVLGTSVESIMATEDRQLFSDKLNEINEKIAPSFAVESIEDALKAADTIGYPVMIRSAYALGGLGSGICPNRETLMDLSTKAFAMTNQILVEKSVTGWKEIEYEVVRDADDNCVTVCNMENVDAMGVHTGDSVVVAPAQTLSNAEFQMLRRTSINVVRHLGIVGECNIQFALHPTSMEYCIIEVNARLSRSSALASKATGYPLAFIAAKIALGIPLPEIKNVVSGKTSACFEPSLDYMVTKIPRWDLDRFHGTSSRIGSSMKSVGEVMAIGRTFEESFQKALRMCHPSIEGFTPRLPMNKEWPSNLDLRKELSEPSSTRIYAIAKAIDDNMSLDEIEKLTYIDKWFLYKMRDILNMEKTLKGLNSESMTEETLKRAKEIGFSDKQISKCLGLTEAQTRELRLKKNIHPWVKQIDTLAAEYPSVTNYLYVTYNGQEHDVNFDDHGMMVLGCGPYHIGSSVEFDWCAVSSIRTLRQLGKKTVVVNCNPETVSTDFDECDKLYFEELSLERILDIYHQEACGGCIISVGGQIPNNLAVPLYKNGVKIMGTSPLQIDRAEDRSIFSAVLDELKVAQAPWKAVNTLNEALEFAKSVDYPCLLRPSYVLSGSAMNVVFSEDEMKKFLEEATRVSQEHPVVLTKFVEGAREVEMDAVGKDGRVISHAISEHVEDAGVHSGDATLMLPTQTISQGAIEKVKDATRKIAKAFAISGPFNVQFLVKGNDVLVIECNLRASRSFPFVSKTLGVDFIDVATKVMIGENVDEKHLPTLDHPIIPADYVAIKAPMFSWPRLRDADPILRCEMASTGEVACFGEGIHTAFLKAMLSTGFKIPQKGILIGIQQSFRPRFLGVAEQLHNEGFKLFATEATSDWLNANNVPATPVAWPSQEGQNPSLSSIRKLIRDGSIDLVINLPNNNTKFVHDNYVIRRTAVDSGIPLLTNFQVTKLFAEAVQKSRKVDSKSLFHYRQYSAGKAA", "assay": "ADP-Glo endpoint assay measuring the ATPase activity of CPS1", "format": "biochemical", "details": "geometric mean of a minimum of two values; 50 nM CPS1, 10 μM ATP, 0.2 mM NAG, 60 min at room temperature; read-out: ADPGlo IC50", "experimental": "CPS1 was expressed and purified from SF21 insect cells. The full length, human CPS1 gene was cloned into pFastBac HTA and baculovirus was generated using the Bac-to-bac expression system from Invitrogen. P3 virus was used to infect SF21 insect cells at a density of 1.5E6 cells/mL at an MOI of 2. Cells were harvested by centrifugation after 60 hrs and the cell pellet resuspended in lysis buffer (50 mM glycyl glycine pH 7.4, 20 mM KCl, 1 mM TCEP, 10% glycerol and 20 mM imidazole with Roche protease inhibitor tablet) before being lysed with 40 strokes of a Dounce homogenizer on ice. The insoluble fraction of the lysate was then cleared by centrifugation at 30,000 rpm for 30 min. 40 mL of supernatant was mixed with 2 mL of Ni NTA beads for 45 min at 4° C. in a 50 mL conical tube.\nThe beads were washed with 40 mL of wash buffer (50 mM glycyl glycine pH 7.4, 500 mM NaCl, 1 mM TCEP, 10% glycerol and 50 mM imidazole) by centrifugation and resuspension of the beads three times. Bound CPS1 protein was eluted in 6 mL of elution buffer (50 mM glycyl glycine pH 7.4, 500 mM NaCl, 1 mM TCEP, 10% glycerol and 250 mM imidazole) three times. Elution fractions were combined and concentrated using an Amicon Ultra centrifugation filter with a 10,000 molecular weight cut off. Imidazole was removed by repeated concentration and resuspension in storage buffer in the filter device (50 mM glycyl glycine pH 7.4, 500 mM NaCl, 1 mM TCEP and 20% glycerol). CPS1 was concentrated to a final concentration of ˜3 mg/mL before being aliquoted, flash frozen in liquid nitrogen and stored at −80° C.\nCPS1 activity was measured and compounds profiled in an endpoint assay measuring the ATPase activity of CPS1 using the ADP-Glo kit from Promega. 50 nM CPS1 was incubated alone or with varying amounts of tested compound from DMSO stocks in assay buffer (50 mM HEPES pH 7.0, 12.5 mM KHCO3, 1.5 mM (NH4)2SO3, 5 mM MgCl2, 50 mM KCl, 1 mM TCEP, 0.01% TritonX 100, 0.0025% BSA and 0.2 mM NAG) for 20 min in a 3 μL volume in a 384-well plate (Corning Cat#3820). The final concentration of DMSO was 0.04%. The reaction was initiated by the addition of 10 μM ATP, bringing the final volume to 6 μL. After 60 min at room temperature, the reaction was terminated with 3 μL ADP-Glo reagent and incubated at room temperature for 30 min. 3 μL of kinase detection reagent was then added and luminescent signal measured on an Envision plate reader after 30 min.", "units": {"IC50": "µM"}, "values": [{"molecule": "COc1ccc(C(=O)N2[C@H](C)CN(C(=O)c3ccc(OC(F)(F)F)cc3F)C[C@H]2C)c(F)c1", "note": "[Compound 1, ((2R,6R)-4-(2-Fluoro-4-(trifluoromethoxy)benzoyl)-2,6-dimethylpiperazin-1-yl)(2-fluoro-4-methoxyphenyl)methanone]", "IC50": 0.672}, {"molecule": "COc1ccc(C(=O)N2[C@H](C)CN(C(=O)c3ccc(OC)c(F)c3F)C[C@H]2C)c(F)c1", "note": "[Compound 2, ((2R,6R)-4-(2,3-Difluoro-4-methoxybenzoyl)-2,6-dimethylpiperazin-1-yl)(2-fluoro-4-methoxyphenyl)methanone]", "IC50": 0.427}, {"molecule": "COc1ccc(C(=O)N2[C@H](C)CN(C(=O)c3ccc4cc[nH]c4c3)C[C@H]2C)c(F)c1", "note": "[Compound 3, ((2R,6R)-4-(1H-Indole-6-carbonyl)-2,6-dimethylpiperazin-1-yl)(2-fluoro-4-methoxyphenyl)methanone]", "IC50": 0.127}, {"molecule": "COc1ccc(C(=O)N2[C@H](C)CN(C(=O)c3ccc(OC)c(F)c3)C[C@H]2C)c(F)c1", "note": "[Compound 4, ((2R,6R)-4-(3-Fluoro-4-methoxybenzoyl)-2,6-dimethylpiperazin-1-yl)(2-fluoro-4-methoxyphenyl)methanone]", "IC50": 0.545}, {"molecule": "CCOc1ccc(C(=O)N2C[C@@H](C)N(C(=O)c3ccc(OC)cc3F)[C@H](C)C2)c(F)c1", "note": "[Compound 5, ((2R,6R)-4-(4-Ethoxy-2-fluorobenzoyl)-2,6-dimethylpiperazin-1-yl)(2-fluoro-4-methoxyphenyl)methanone]", "IC50": 0.139}, {"molecule": "COc1ccc(C(=O)N2[C@H](C)CN(C(=O)c3ccc4c(c3)N(C)CC4)C[C@H]2C)c(F)c1", "note": "[Compound 6, ((2R,6R)-2,6-Dimethyl-4-(1-methylindoline-6-carbonyl)piperazin-1-yl)(2-fluoro-4-methoxyphenyl)methanone]", "IC50": 7.67}, {"molecule": "COc1ccc(C(=O)N2[C@H](C)CN(C(=O)c3ccc4cc(C)[nH]c4c3)C[C@H]2C)c(F)c1", "note": "[Compound 7, ((2R,6R)-2,6-Dimethyl-4-(2-methyl-1H-indole-6-carbonyl)piperazin-1-yl)(2-fluoro-4-methoxyphenyl)methanone]", "IC50": 0.171}, {"molecule": "COc1ccc(C(=O)N2[C@H](C)CN(C(=O)c3ccc(NC(C)=O)cc3F)C[C@H]2C)c(F)c1", "note": "[Compound 8, N-(3-Fluoro-4-((3R,5R)-4-(2-fluoro-4-methoxybenzoyl)-3,5-dimethylpiperazine-1-carbonyl)phenyl)acetamide]", "IC50": 2.78}, {"molecule": "COc1ccc(C(=O)N2[C@H](C)CN(C(=O)c3ccc(OC(F)F)cc3F)C[C@H]2C)c(F)c1", "note": "[Compound 9, ((2R,6R)-4-(4-(Difluoromethoxy)-2-fluorobenzoyl)-2,6-dimethylpiperazin-1-yl)(2-fluoro-4-methoxyphenyl)methanone]", "IC50": 0.19}, {"molecule": "COc1ccc(C(=O)N2[C@H](C)CN(C(=O)c3cc(F)c(OC)cc3F)C[C@H]2C)c(F)c1", "note": "[Compound 10, ((2R,6R)-4-(2,5-Difluoro-4-methoxybenzoyl)-2,6-dimethylpiperazin-1-yl)(2-fluoro-4-methoxyphenyl)methanone]", "IC50": 0.71}, {"molecule": "COc1ccc(C(=O)N2[C@H](C)CN(C(=O)c3ccc(OC)cc3Cl)C[C@H]2C)c(F)c1", "note": "[Compound 11, ((2R,6R)-4-(2-Chloro-4-methoxybenzoyl)-2,6-dimethylpiperazin-1-yl)(2-fluoro-4-methoxyphenyl)methanone]", "IC50": 2.81}, {"molecule": "COc1ccc(C(=O)N2[C@H](C)CN(C(=O)c3ccc(F)cc3F)C[C@H]2C)c(F)c1", "note": "[Compound 12, ((2R,6R)-4-(2,4-Difluorobenzoyl)-2,6-dimethylpiperazin-1-yl)(2-fluoro-4-methoxyphenyl)methanone]", "IC50": 2.59}, {"molecule": "COc1ccc(C(=O)N2[C@H](C)CN(C(=O)c3ccc4c[nH]nc4c3)C[C@H]2C)c(F)c1", "note": "[Compound 13, ((2R,6R)-4-(2H-Indazole-6-carbonyl)-2,6-dimethylpiperazin-1-yl)(2-fluoro-4-methoxyphenyl)methanone]", "IC50": 0.711}, {"molecule": "COc1ccc(C(=O)N2[C@H](C)CN(C(=O)c3ccc(C)cc3F)C[C@H]2C)c(F)c1", "note": "[Compound 14, ((3R,5R)-4-(2-Fluoro-4-methoxybenzoyl)-3,5-dimethylpiperazin-1-yl)(2-fluoro-4-methylphenyl)methanone]", "IC50": 2.2}, {"molecule": "COc1ccc(C(=O)N2[C@H](C)CN(C(=O)c3c(F)cc(OC)cc3F)C[C@H]2C)c(F)c1", "note": "[Compound 15, ((2R,6R)-4-(2,6-Difluoro-4-methoxybenzoyl)-2,6-dimethylpiperazin-1-yl)(2-fluoro-4-methoxyphenyl)methanone]", "IC50": 0.42}, {"molecule": "COc1ccc(C(=O)N2[C@H](C)CN(C(=O)c3c(F)cc(SC)cc3F)C[C@H]2C)c(F)c1", "note": "[Compound 16, ((2R,6R)-4-(2,6-Difluoro-4-(methylthio)benzoyl)-2,6-dimethylpiperazin-1-yl)(2-fluoro-4-methoxyphenyl)methanone]", "IC50": 0.552}, {"molecule": "COc1ccc(C(=O)N2[C@H](C)CN(C(=O)c3cc(Cl)c4cc[nH]c4c3)C[C@H]2C)c(F)c1", "note": "[Compound 17, (4-Chloro-1H-indol-6-yl)((3R,5R)-4-(2-fluoro-4-methoxybenzoyl)-3,5-dimethylpiperazin-1-yl)methanone]", "IC50": 0.526}, {"molecule": "COc1ccc(C(=O)N2[C@H](C)CN(C(=O)c3ccc4c(c3)CCCO4)C[C@H]2C)c(F)c1", "note": "[Compound 18, Chroman-6-yl((3R,5R)-4-(2-fluoro-4-methoxybenzoyl)-3,5-dimethylpiperazin-1-yl)methanone]", "IC50": 5.87}, {"molecule": "COc1ccc(C(=O)N2[C@H](C)CN(C(=O)c3ccc4cc[nH]c4n3)C[C@H]2C)c(F)c1", "note": "[Compound 19, ((2R,6R)-2,6-Dimethyl-4-(1H-pyrrolo[2,3-b]pyridine-6-carbonyl)piperazin-1-yl)(2-fluoro-4-methoxyphenyl)methanone]", "IC50": 3.28}, {"molecule": "COc1ccc(C(=O)N2[C@H](C)CN(C(=O)c3ccc(N(C)C)cc3F)C[C@H]2C)c(F)c1", "note": "[Compound 20, ((2R,6R)-4-(4-(Dimethylamino)-2-fluorobenzoyl)-2,6-dimethylpiperazin-1-yl)(2-fluoro-4-methoxyphenyl)methanone]", "IC50": 3.96}]}]}
